# Experimental data from US10155004B2, “17-hydroxy-17-pentafluoroethyl-estra-4,9(10)-dien-11-aryl derivatives, method of production thereof and use thereof for the treatment of diseases” (BAYER INTELLECTUAL PROPERTY GMBH, priority 2009, dated 2018).
# Key:
# [1] = target: T1, human progesterone receptor B (Homo sapiens, UniProt P06401); assay: Progesterone receptor-antagonistic action in stably transfected SK-N-MC cells, MTV-LUC reporter (PR-B); assay type: cell-based; settings: antagonistic efficacy vs 0.1 nmol/l promegestone
# T1 construct: expressed in transfected cells; host or cells: SK-N-MC human neuroblastoma cells, stably transfected
# T1 sequence (P06401 1-933): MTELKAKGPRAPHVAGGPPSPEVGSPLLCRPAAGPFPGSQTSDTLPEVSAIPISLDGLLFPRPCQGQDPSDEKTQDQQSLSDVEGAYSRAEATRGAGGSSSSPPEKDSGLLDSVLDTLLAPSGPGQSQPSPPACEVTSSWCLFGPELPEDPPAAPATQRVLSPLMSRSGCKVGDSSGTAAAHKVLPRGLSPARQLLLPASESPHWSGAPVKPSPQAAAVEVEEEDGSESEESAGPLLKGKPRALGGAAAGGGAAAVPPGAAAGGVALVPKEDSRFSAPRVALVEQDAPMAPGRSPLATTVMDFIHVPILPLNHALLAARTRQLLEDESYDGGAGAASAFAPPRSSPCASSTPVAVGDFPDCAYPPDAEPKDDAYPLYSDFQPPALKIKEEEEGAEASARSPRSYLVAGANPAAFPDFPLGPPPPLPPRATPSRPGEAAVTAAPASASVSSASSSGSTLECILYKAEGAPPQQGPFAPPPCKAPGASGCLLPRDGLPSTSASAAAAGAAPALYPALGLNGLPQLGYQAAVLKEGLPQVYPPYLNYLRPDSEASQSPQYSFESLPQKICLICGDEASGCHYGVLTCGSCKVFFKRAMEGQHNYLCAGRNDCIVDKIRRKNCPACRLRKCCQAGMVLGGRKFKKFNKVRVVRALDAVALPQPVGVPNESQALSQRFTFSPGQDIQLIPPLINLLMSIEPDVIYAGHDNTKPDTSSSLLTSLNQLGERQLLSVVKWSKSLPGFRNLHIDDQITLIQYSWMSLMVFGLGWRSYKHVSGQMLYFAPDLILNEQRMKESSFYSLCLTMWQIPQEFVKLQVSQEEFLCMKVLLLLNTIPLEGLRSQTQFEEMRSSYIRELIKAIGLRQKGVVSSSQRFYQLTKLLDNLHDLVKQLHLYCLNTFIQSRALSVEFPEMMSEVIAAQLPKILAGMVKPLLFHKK
# Experimental: EXAMPLE 16 PROGESTERONE RECEPTOR-ANTAGONISTIC ACTION IN STABLE TRANSFECTANTS OF HUMAN NEUROBLASTOMA CELLS (SK-N-MC CELLS) WITH THE HUMAN PROGESTERONE A OR PROGESTERONE B RECEPTOR AND AN MTV-LUC REPORTER CONSTRUCT
# SK-N-MC cells (human neuroblastoma cells), which have been stably transfected with plasmids, which express the human progesterone receptor B (pRChPR-B-neo) or the human progesterone receptor A (pRChPR-A-neo) and a reporter construct (pMMTV-LUC), were incubated for 24 hours either in the absence (negative control) or in the presence of increasing amounts of the respective test compound (0.01 nmol/l, 0.1 nmol/l 1 nmol/l, 10 nmol/l, 100 nmol/l and 1 μmol/l), in order to determine the agonistic efficacy. As positive control of reporter gene induction, the cells were treated with the synthetic gestagen promegestone (0.01 nmol/l, 0.1 nmol/l, 1 nmol/l, 10 nmol/l, 100 nmol/l and 1 μmol/l). For determination of the antagonistic activity, the cells were treated with 0.1 nmol/1 promegestone and additionally with increasing amounts of the respective test compound (0.01 nmol/l, 0.1 nmol/l, 1 nmol/l, 10 nmol/l, 100 nmol/l and 1 μmol/l). The activity of the LUC reporter gene (LUC=luciferase) was determined in the cell lysates and was measured as RLU (relative light units). All measured values are given as percentage efficacy and as EC50 or IC50 concentrations.
# 11β-(4-Acetylphenyl)-20,20,21,21,21-pentafluoro-17-hydroxy-19-nor-17α-pregna-4,9-dien-3-one and 20,20,21,21,21-pentafluoro-17-hydroxy-11β-[4-(hydroxyacetyl)phenyl]-19-nor-17α-pregna-4,9-dien-3-one, very potent and therefore preferred examples from WO98/34947 and WO2008/058767, were tested as comparative compounds along with the test compound.
# [2] = Chemical stability against temperature, light and oxidative stress; assay type: physicochemical; settings: compared with analogue with alkanoyl or hydroxyalkanoyl group
# pregnant rats = assay: Abortion test on female rats (termination of early pregnancy); assay type: in vivo, rat; settings: d5-d7 p.c., autopsy d9 p.c.
# Experimental: EXAMPLE 17 ABORTION TEST ON FEMALE RATS
# The action of progesterone and of the progesterone receptor is a fundamental precondition for successful pregnancy or gestation in mammals. The progesterone-antagonistic action of the compounds according to the invention was tested on pregnant rats (6 rats per group) on day 5 to 7 post coitum with conventional housing and feeding conditions.
# After successful hand mating, the pregnant animals (presence of sperm in the vaginal smear on day 1 of pregnancy=d1 p.c.) were randomized and divided into the treatment group and the control group. The animals then each received subcutaneously or orally 0.15; 0.5; 1.5 or 5 mg/kg of the test compound or 1.0 ml/kg of vehicle (benzyl benzoate/castor oil: 1+4 [v/v]) daily from day 5 to day 7 (d5-d7 p.c.).
# Autopsy was carried out on day 9 (d9 p.c.). As a characteristic of progesterone receptor antagonistic action, the uterus was examined for the presence of nidation sites. Complete absence, or also the presence of pathological, haemorrhagic or otherwise abnormal nidation sites on day 9 (d9 p.c.) was assessed as abortion.
# rodents and non-rodents = settings: in vivo
smiles,measurement,setting,value
"C[C@]12C[C@H](c3ccc(S(C)(=O)=O)cc3)C3=C4CCC(=O)C=C4CC[C@H]3[C@@H]1CC[C@@]2(O)C(F)(F)C(F)(F)F [Example 4, (11β,17β)-17-Hydroxy-11-[4-(methylsulphonyl)phenyl]-17-(pentafluoroethyl)estra-4,9-dien-3-one]",Progesterone receptor B (PR-B) Efficacy,[1],100%
same,oxidation sensitivity,[2],surprisingly low oxidation sensitivity
same,stability under the influence of UV light,[2],surprisingly high stability
same,stability under thermal load,[2],surprisingly high stability under thermal load
same,Abortion rate,pregnant rats; daily dose 0.15 mg/kg s.c. or p.o.,40%
same,Abortion rate,pregnant rats; daily dose 0.5 mg/kg s.c. or p.o.,100%
same,Abortion rate,pregnant rats; daily dose 1.5 mg/kg s.c. or p.o.,100%
same,Abortion rate,pregnant rats; daily dose 5.0 mg/kg s.c. or p.o.,100%
same,safety profile,rodents and non-rodents,especially favourable safety profile
